Source: PMC7488503 (Acta Pharmaceutica Sinica. B, 2020)

Test system: patient-derived tumor (LI-03-0020) xenograft
Experiment: Liver cancer patient-derived tumor xenograft
Type: in vivo, Balb/c nude mice
Details: liver cancer PDX model, 60 mg/kg oral QD

With `CNC(=O)c1cc(Oc2ccc(NC(=O)Nc3ccc(Cl)c(C(F)(F)F)c3)cc2)ccn1` [Sorafenib, reference compound] the T/C (Day 21) was 31%, the TGI (Day 21) was 80% and the “Tumor volume at Day 21” value (mean ± SEM) was 304 ± 73 mm^3.
